Experiment [1] addresses Platelet-activating factor receptor (Oryctolagus cuniculus). Put plainly: In vitro ability to displace [3H]PAF from PAF receptor in rabbit platelet membranes.
The target is the same in experiment [2]. Put plainly: In vitro inhibitory activity against PAF-induced aggregation of rabbit platelets.

Molecules are shown by their SMILES.

`CCCCCCCCCCCCCCCCCCNC(=O)OC[C@H]1C[C@H](COC(=O)N(Cc2cccc[n+]2CC)C(=O)c2ccc(OC)cc2)S1` [1-Ethyl-2-{[(4-methoxy-benzoyl)-(4-octadecylcarbamoyloxymethyl-thietan-2-ylmethoxycarbonyl)-amino]-methyl}-pyridinium; chloride]: the affinity in experiment [1], expressed as Ki, was 34 nM. Also, the IC50 in experiment [2] is 84 nM.
Compound `CCCCCCCCCCCCCCCCCCNC(=O)OC[C@H]1C[C@H](COC(=O)N(Cc2cccc[n+]2CC)C(C)=O)C1` [2-{[Acetyl-(3-octadecylcarbamoyloxymethyl-cyclobutylmethoxycarbonyl)-amino]-methyl}-1-ethyl-pyridinium; iodide] showed a Ki in experiment [1] of 4.3 nM.
Same read-out and setting: next, `CCCCCCCCCCCCCCCCCCNC(=O)OC[C@H]1C[C@H](COC(=O)N(Cc2cccc[n+]2CC)C(C)=O)N1C(C)=O` [2-{[Acetyl-((2R,4R)-1-acetyl-4-octadecylcarbamoyloxymethyl-azetidin-2-ylmethoxycarbonyl)-amino]-methyl}-1-ethyl-pyridinium; chloride]: 35 nM.
Turning to `CCCCCCCCCCCCCCCCOC[C@H]1C[C@H](COC(=O)N(Cc2cccc[n+]2CC)C(C)=O)S1` [2-{[Acetyl-((2R,4R)-4-hexadecyloxymethyl-thietan-2-ylmethoxycarbonyl)-amino]-methyl}-1-ethyl-pyridinium; chloride], the Ki in experiment [1] was 20 nM. In addition, the IC50 in experiment [2] was found to be 52 nM.
The corresponding values for `CCCCCCCCCCCCCCCCCCNC(=O)OC[C@H]1C[C@H](COC(=O)N(Cc2cccc[n+]2CC)C(C)=O)S1` [2-{[Acetyl-((2R,4R)-4-octadecylcarbamoyloxymethyl-thietan-2-ylmethoxycarbonyl)-amino]-methyl}-1-ethyl-pyridinium; chloride] are 4.3 nM and 57 nM.
The compound `CCCCCCCCCCCCCCCCOC[C@H]1C[C@@H](COC(=O)N(Cc2cccc[n+]2CC)C(C)=O)O1` [2-{[Acetyl-((2S,4R)-4-hexadecyloxymethyl-oxetan-2-ylmethoxycarbonyl)-amino]-methyl}-1-ethyl-pyridinium; iodide] came in with an inhibitory constant (Ki) in experiment [1] of 21 nM. In experiment [2], this compound had an IC50 of 95 nM.
The matching figures for `CCCCCCCCCCCCCCCCCCNC(=O)OC[C@H]1C[C@@H](COC(=O)N(Cc2cccc[n+]2CC)C(C)=O)S1` [2-{[Acetyl-((2S,4R)-4-octadecylcarbamoyloxymethyl-thietan-2-ylmethoxycarbonyl)-amino]-methyl}-1-ethyl-pyridinium; chloride]: 9.8 nM and 61 nM.
In the case of `CCCCCCCCCCCCCCCCNC(=O)OC[C@@H]1C[C@@H](COC(=O)N(Cc2cccc[n+]2CC)C(C)=O)S1` [2-{[Acetyl-((2S,4S)-4-hexadecylcarbamoyloxymethyl-thietan-2-ylmethoxycarbonyl)-amino]-methyl}-1-ethyl-pyridinium; chloride], in experiment [1], the Ki was determined as 9.8 nM.
`CCCCCCCCCCCCCCCCOC[C@@H]1C[C@@H](COC(=O)N(Cc2cccc[n+]2CC)C(C)=O)O1` [2-{[Acetyl-((2S,4S)-4-hexadecyloxymethyl-oxetan-2-ylmethoxycarbonyl)-amino]-methyl}-1-ethyl-pyridinium; iodide] registered a Ki in experiment [1] of 15 nM. This compound also returned an IC50 in experiment [2] of 57 nM.

As a reminder, the Ki is the equilibrium dissociation constant of an inhibitor or competing ligand from its target. A high value points to weaker binding. As a reminder, the IC50 is the concentration that gives 50% inhibition.
